Experimental data: article PMC8072719, “Synthesis and Antiproliferative Activity of Triazoles Based on 2-Azabicycloalkanes” (Materials, 2021)
Like-named read-outs stand apart in the source and are kept apart here.

Tests used:
MIA PaCa-2 = test: Growth inhibition assay (SRB assay), pancreatic tumor cell line MIA PaCa-2; assay type: cell-based, human; conditions: Homo sapiens, mean ± SD
Experimental: (§1) Three human cancer cell lines were used to evaluate the antiproliferative activity of the obtained compounds: melanoma cell line Hs294T, pancreatic tumor cell line MIA PaCa-2, and lung tumor cell line NCI-H1581. The normal mouse fibroblasts cell line (BALB/3T3 clone A31) was selected as reference. All these lines were purchased from the ATCC (American Type Culture Collection, Rockville, MD, USA). NCI-H1581 cells were grown in RPMI 1640 with GlutaMax medium (Gibco, Thermo Fisher Scientific, Leicestershire, UK) with 5% fetal bovine serum (FBS; HyClone, GE Healthcare, Logan, UT, USA). Hs294T and BALB/3T3 cells were grown in Dulbecco’s Modified Eagle Medium (DMEM; Gibco, Thermo Fisher Scientific, Leicestershire, UK) supplemented with 2 mM L-glutamine and 10% FBS (HyClone, GE Healthcare, Logan, UT, USA). MIA PaCa-2 cells were grown in DMEM (Gibco, Thermo Fisher Scientific, Leicestershire, UK) supplemented with 2 mM L-glutamine, 2.5% Horse Serum (Gibco, Thermo Fisher Scientific, Leicestershire, UK), and 10% FBS (HyClone, GE Healthcare, Logan, UT, USA). All culture media were supplemented with antibiotics: 100 U/mL penicillin (Polfa Tarchomin SA, Warsaw, Poland) and 100 µg/mL streptomycin (Sigma-Aldrich Chemie GmbH, Steinheim, Germany); cells were grown at 37 °C in a humid atmosphere with 5% CO2.
(§2) Twenty-four hours prior to the addition of the tested compounds, 2000 cells per well of Balb/3T3, MIA PaCa-2, and Hs294T cell lines and 2500 cells of NCI-H1581 cell line were seeded in 384-well plates (Greiner Bio-One, Kremsmünster, Austria) in an appropriate medium. The studied compounds were added to the cells at 8 different concentrations in a series of dilutions from 100 to 0.00001 µg/mL for 72 h. Cisplatin was applied as a reference compound (Teva Pharmaceuticals, Warsaw, Poland). DMSO (Sigma-Aldrich Chemie GmbH, Steinheim, Germany) was used as solvent control. The DMSO concentrations corresponded to the solvent concentrations in the tested compound solutions. Then, 30 µL per well of ice-cold 50% TCA (trichloroacetic acid, Avantor, Gliwice, Poland) was added to the cells. After one hour of incubation at room temperature (RT) cells were washed five times with water and stained with 0.4% SRB (sulforhodamine B, Sigma-Aldrich Chemie GmbH, Steinheim, Germany). Twenty-five microliters per well of 0.4% solution of SRB in 1% acetic acid (Avantor, Gliwice, Poland) was applied. After 0.5 h of incubation at RT, the unbound dye was washed out with 1% acetic acid. The bound dye in each well was dissolved in 70 µl of 10 mM TRIS (Tris base, Sigma-Aldrich, Chemie GmbH, Steinheim, Germany). A microplate reader (BioTek Synergy H4, Swindon, UK) with Gen5 software was used to read the absorbance at 540 nm. The results are presented as mean IC50 values (concentration of the compound that inhibits cell proliferation by 50%) ± standard deviation. Half-maximal inhibitory concentration (IC50) values were calculated using the Prolab-3 system based on Cheburator 0.4 [22]. Each experiment was performed in triplicate, and three independent repetitions were made for each experiment. Raw data and IC50 values were placed in the supplementary materials.

Hs294T = test: Growth inhibition assay (SRB assay), melanoma cell line Hs294T; assay type: cell-based, human; conditions: Homo sapiens, Hs 294T, 72 h, mean ± SD
Experimental: as §1, §2

BALB/3T3 clone A31 = test: Growth inhibition assay (SRB assay), normal fibroblasts BALB/3T3 clone A31; assay type: cell-based, mouse; conditions: mean ± SD
Experimental: as §1, §2

[1] = Solvability in DMSO (table footnote); assay type: physicochemical; parameters: key to solvability in dimethyl sulfoxide (DMSO): **: poor or no solvability in dimethyl sulfoxide (DMSO); key to solvability in DMSO: [b]: poor or no solvability in DMSO; conditions: for solvability in DMSO: supplement
NCI-H1581 = test: Growth inhibition assay (SRB assay), lung tumor cell line NCI-H1581; assay type: cell-based, human; conditions: for IC50: 72 h, SRB, mean ± SD; for SI (Selectivity Index): SI = IC50 for normal cell line BALB/3T3 / IC50 for NCI-H1581
Experimental: as §1, §2

[2] = MIA PaCa-2, 72 h, read-out: IC50 MIA PaCa-2
[3] = MIA PaCa-2, supplement, 72 h, read-out: IC50 MIA PaCa-2 (raw data)
[4] = supplement, read-out: IC50 Hs294T (raw data)
[5] = Mus musculus, BALB/3T3 clone A31, 72 h, normal cell line, read-out: IC50 BALB3T3
[6] = Mus musculus, BALB/3T3 clone A31, 72 h, supplement, read-out: IC50 BALB3T3 (raw data)
[7] = Homo sapiens, NCI-H1581, 72 h, read-out: IC50 NCI-H1581
[8] = Homo sapiens, NCI-H1581, 72 h, supplement, read-out: IC50 NCI-H1581 (raw data)

| IC50 (MIA PaCa-2; [2]) [µM] | IC50 (MIA PaCa-2; [3]) | IC50 (Hs294T; read-out: IC50 Hs294T) [µM] | IC50 (Hs294T; [4]) [µg/mL] | solvability in dimethyl sulfoxide (DMSO) [1] | solvability in DMSO [1] | IC50 (NCI-H1581; [7]) [µM] | IC50 (NCI-H1581; [8]) [µg/mL] | IC50 (NCI-H1581; read-out: IC50 NCI-H1581) [µM] | IC50 (MIA PaCa-2; MIA PaCa-2, supplement, 72 h, read-out: IC50 MIA PaCa-2 (non-rounded data)) [µM] | SMILES | IC50 (BALB/3T3 clone A31; 72 h, normal cell line, read-out: IC50 BALB3T3) [µM] | IC50 (BALB/3T3 clone A31; [5]) [µM] | IC50 (BALB/3T3 clone A31; [6]) | SI (Selectivity Index) (NCI-H1581) | IC50 (BALB/3T3 clone A31; Mus musculus, BALB/3T3 clone A31, 72 h, supplement, read-out: IC50 BALB3T3 (non-rounded data)) [µM] |
| --- | --- | --- | --- | --- | --- | --- | --- | --- | --- | --- | --- | --- | --- | --- | --- |
| 37.6 ± 5.51 | 22.7 ± 3.33 µg/mL | 9.71 ± 3.08 | 5.87 ± 1.86 | 11 ** | [b] | 4.4 ± 0.61 | 2.66 ± 0.37 |  |  | C[C@@H](c1ccccc1)N1C[C@H](n2cc(CCCc3cn([C@H]4CN([C@@H](C)c5ccccc5)[C@H]5CC[C@@H]4C5)nn3)nn2)[C@@H]2CC[C@H]1C2 [Compound 11, 1,3-Bis-(1-((1S,4R,5R)-2-((S)-1-phenylethyl)-2-azabicyclo[3.2.1]octan-4-yl)-1H-1,2,3-triazol-4-yl) propane] | 26.7 ± 4.76 | 26.7 | 16.2 ± 2.88 µg/mL | 6 |  |
| 90.28 ± 0.69 | 40.77 ± 0.31 µg/mL | 92.6 ± 22 | 41.8 ± 9.92 | 21 ** | [b] | 77.6 | 35 ± 3.92 | 77.6 ± 8.68 |  | CC(c1ccccc1)N1C2CCC(C2)C1c1cn(CC2CCCN2C(=O)OC(C)(C)C)nn1 (stereo not shown) [Compound 21] |  | > 100 | 48.8 ± 10.1 µg/mL |  |  |
| > 100 | > 100 µM | 77.3 ± 9.5 | 49.4 ± 6.07 | 14 ** | [b] | 20.9 ± 15.2 | 13.4 ± 9.71 |  | > 100 | C[C@@H](c1ccccc1)N1C[C@@H](n2cc(-c3ccc(-c4cn([C@@H]5CN([C@@H](C)c6ccccc6)[C@H]6CC[C@@H]5C6)nn4)cc3)nn2)[C@@H]2CC[C@H]1C2 [Compound 14, 1,4-Bis-(1-((1S,4S,5R)-2-((S)-1-phenylethyl)-2-azabicyclo[3.2.1]octan-4-yl)-1H-1,2,3-triazol-4-yl) benzene] |  | > 100 | > 100 µM |  | > 100 |
| 111 ± 9.55 | 71.2 ± 6.1 µg/mL | 58.8 ± 4.07 | 37.6 ± 2.6 | 15 ** | [b] | 6.87 ± 1.46 | 4.39 ± 0.93 |  |  | C[C@@H](c1ccccc1)N1C[C@H](n2cc(-c3ccc(-c4cn([C@H]5CN([C@@H](C)c6ccccc6)[C@H]6CC[C@@H]5C6)nn4)cc3)nn2)[C@@H]2CC[C@H]1C2 [Compound 15, 1,4-Bis-(1-((1S,4R,5R)-2-((S)-1-phenylethyl)-2-azabicyclo[3.2.1]octan-4-yl)-1H-1,2,3-triazol-4-yl) benzene] |  | 59.5 ± 11.7 | 38 ± 7.48 µg/mL | 9 |  |
